Reference: US8497380B2, “Substituted acetophenones useful as PDE4 inhibitors” (Leo Pharma A/S, priority 2006, dated 2013)

test system: Human peripheral blood mononuclear cells (PBMC); experiment: TNFalfa-Release; format: cell-based; details: inhibition of TNF-a secretion, PBMC pre-incubated 30 minutes, stimulated 18 hours with lipopolysaccharide
Protocol: Human peripheral blood mononuclear cells (PBMC) are Isolated from buffy coats. The blood is mixed with saline at a ratio of 1:1, and the PBMC is isolated by the use of Lymphoprep Tubes™ (Nycomed, Norway). The PBMC is suspended in RPMI1640 with 2% foetal calf serum (FCS), pen/strep and 2 mM L-glutamine at a concentration of 5×105 c/ml. The cells are pre-incubated for 30 minutes with the test compounds in 96 well tissue culture plates and stimulated for 18 hours with lipopolysaccharide 1 mg/ml (Sigma). The level of TNF-a is measured in the culture supernatant by enzyme immuno assays using primary and secondary biotinylated antibodies from R&D systems. Results are expressed as pIC50 values calculated from inhibition curves using as positive controls the secretion in LPS stimulated wells and as negative controls the secretion in unstimulated cells.

SMILES	IC50 [nM]
COc1ccc(CNC(=O)COc2c(C(=O)Cc3c(Cl)cncc3Cl)ccc(OC)c2OC)cc1 [Compound 213, 2-{6-[2-(3,5-Dichloro-pyridin-4-yl)-acetyl]-2,3-dimethoxy-phenoxy}-N-(4-methoxy-benzyl)-acetamide]	< 1000
COc1ccc(C(=O)Cc2c(Cl)cncc2Cl)c(OCC(=O)NCC(C)(C)C)c1OC [Compound 214]	< 1000
COc1ccc(C(=O)Cc2c(Cl)cncc2Cl)c(OCC(=O)NC2CCCCC2)c1OC [Compound 215, N-Cyclohexyl-2-{6-[2-(3,5-dichloro-pyridin-4-yl)-acetyl]-2,3-dimethoxy-phenoxy}-acetamide]	< 1000
COc1cccc(CNC(=O)COc2c(C(=O)Cc3c(Cl)cncc3Cl)ccc(OC)c2OC)c1 [Compound 216, 2-{6-[2-(3,5-Dichloro-pyridin-4-yl)-acetyl]-2,3-dimethoxy-phenoxy}-N-(3-methoxy-benzyl)-acetamide]	< 1000
COc1ccc(C(=O)Cc2c(Cl)cncc2Cl)c(OCC(=O)NC2CCCCCC2)c1OC [Compound 217, N-Cycloheptyl-2-{6-(2-(3,5-dichloro-pyridin-4-yl)-acetyl)-2,3-dimethoxy-phenoxy}-acetamide]	< 1000
COc1ccccc1CNC(=O)COc1c(C(=O)Cc2c(Cl)cncc2Cl)ccc(OC)c1OC [Compound 218, 2-{6-[2-(3,5-Dichloro-pyridin-4-yl)-acetyl]-2,3-dimethoxy-phenoxy}-N-(2-methoxy-benzyl)-acetamide]	< 1000
COc1ccc(C(=O)Cc2c(Cl)cncc2Cl)c(OCC(=O)NCC2CCCCC2)c1OC [Compound 219, N-Cyclohexylmethyl-2-{6-[2-(3,5-dichloro-pyridin-4-yl)-acetyl]-2,3-dimethoxy-phenoxy}-acetamide]	< 1000
COc1ccc(C(=O)Cc2c(Cl)cncc2Cl)c(OCC(=O)NCCO)c1OC [Compound 220, 2-{6-[2-(3,5-Dichloro-pyridin-4-yl)-acetyl]-2,3-dimethoxy-phenoxy}-N-(2-hydroxy-ethyl)-acetamide]	< 1000
COc1ccc(C(=O)Cc2c(Cl)cncc2Cl)c(OCC(=O)N[C@H](C)c2ccccc2)c1OC [Compound 221, (R)-2-{6-[2-(3,5-Dichloro-pyridin-4-yl)-acetyl]-2,3-dimethoxy-phenoxy}-N-(1-phenyl-ethyl)-acetamide]	< 1000
COc1ccc(C(=O)Cc2c(Cl)cncc2Cl)c(OCC(=O)NCCCO)c1OC [Compound 222, 2-{6-[2-(3,5-Dichloro-pyridin-4-yl)-acetyl]-2,3-dimethoxy-phenoxy}-N-(3-hydroxy-propyl)-acetamide]	< 1000
COCCNC(=O)COc1c(C(=O)Cc2c(Cl)cncc2Cl)ccc(OC)c1OC [Compound 223, 2-{6-(2-(3,5-Dichloro-pyridin-4-yl)-acetyl)-2,3-dimethoxy-phenoxy}-N-(2-methoxy-ethyl)-acetamide]	< 1000
COc1ccc(C(=O)Cc2c(Cl)cncc2Cl)c(OCC(=O)NCCN(C)C)c1OC [Compound 224, 2-{6-[2-(3,5-Dichloro-pyridin-4-yl)-acetyl]-2,3-dimethoxy-phenoxy}-N-(2-dimethylamino-ethyl)-acetamide]	< 1000
COc1ccc(C(=O)Cc2c(Cl)cncc2Cl)c(OCC(=O)NCCCN(C)C)c1OC [Compound 225, 2-{6-[2-(3,5-Dichloro-pyridin-4-yl)-acetyl]-2,3-dimethoxy-phenoxy}-N-(3-dimethylamino-propyl)-acetamide]	< 1000
COc1ccc(C(=O)Cc2c(Cl)cncc2Cl)c(OCC(=O)N[C@@H](C)c2ccccc2)c1OC [Compound 226, (S)-2-(6-[2-(3,5-Dichloro-pyridin-4-yl)-acetyl]-2,3-dimethoxy-phenoxy)-N-(1-phenyl-ethyl)-acetamide]	< 1000
COc1ccc(C(=O)Cc2c(Cl)cncc2Cl)c(OCC(=O)NCCCOC(C)C)c1OC [Compound 227, 2-{6-[2-(3,5-Dichloro-pyridin-4-yl)-acetyl]-2,3-dimethoxy-phenoxy}-N-(3-isopropoxy-propyl)-acetamide]	< 1000
COc1ccc(C(=O)Cc2c(Cl)cncc2Cl)c(OCC(=O)NCc2ccco2)c1OC [Compound 228, 2-{6-[2-(3,5-Dichloro-pyridin-4-yl)-acetyl]-2,3-dimethoxy-phenoxy}-N-furan-2-ylmethyl-acetamide]	< 1000
COc1ccc(C(=O)Cc2c(Cl)cncc2Cl)c(OCC(=O)NCc2ccccn2)c1OC [Compound 229, 2-{6-[2-(3,5-Dichloro-pyridin-4-yl)-acetyl]-2,3-dimethoxy-phenoxy}-N-pyridin-2-ylmethyl-acetamide]	< 1000
COc1ccc(C(=O)Cc2c(Cl)cncc2Cl)c(OCC(=O)NCc2cccnc2)c1OC [Compound 230, 2-{6-[2-(3,5-Dichloro-pyridin-4-yl)-acetyl]-2,3-dimethoxy-phenoxy}-N-pyridin-3-ylmethyl-acetamide]	< 1000

SMILES	IC50 [nM]
COc1ccc(C(=O)Cc2c(Cl)cncc2Cl)c(OCC(=O)NCCOc2ccccc2)c1OC [Compound 231, 2-{6-[2-(3,5-Dichloro-pyridin-4-yl)-acetyl]-2,3-dimethoxy-phenoxy}-N-(2-phenoxy-ethyl)-acetamide]	< 1000
COc1ccc(C(=O)Cc2c(Cl)cncc2Cl)c(OCC(=O)NCc2ccncc2)c1OC [Compound 232, 2-{6-[2-(3,5-Dichloro-pyridin-4-yl)-acetyl]-2,3-dimethoxy-phenoxy}-N-pyridin-4-ylmethyl-acetamide]	< 1000
CCc1ccc(CNC(=O)COc2c(C(=O)Cc3c(Cl)cncc3Cl)ccc(OC)c2OC)cc1 [Compound 233, 2-{6-[2-(3,5-Dichloro-pyridin-4-yl)-acetyl]-2,3-dimethoxy-phenoxy}-N-(4-ethyl-benzyl)-acetamide]	< 1000
COc1ccc(C(=O)Cc2c(Cl)cncc2Cl)c(OCC(=O)NCc2cc(F)cc(F)c2)c1OC [Compound 234, 2-{6-[2-(3,5-Dichloro-pyridin-4-yl)-acetyl]-2,3-dimethoxy-phenoxy}-N-(3,5-difluoro-benzyl)-acetamide]	< 1000
COc1ccc(C(=O)Cc2c(Cl)cncc2Cl)c(OCC(=O)NCc2cccc(F)c2F)c1OC [Compound 235, 2-{6-[2-(3,5-Dichloro-pyridin-4-yl)-acetyl]-2,3-dimethoxy-phenoxy}-N-(2,3-difluoro-benzyl)-acetamide]	< 1000
COc1ccc(C(=O)Cc2c(Cl)cncc2Cl)c(OCC(=O)NCCc2ccccn2)c1OC [Compound 236, 2-{6-[2-(3,5-Dichloro-pyridin-4-yl)-acetyl]-2,3-dimethoxy-phenoxy}-N-(2-pyridin-2-yl-ethyl)-acetamide]	< 1000
COc1ccc(C(=O)Cc2c(Cl)cncc2Cl)c(OCC(=O)NCc2ccccc2C)c1OC [Compound 237, 2-{6-[2-(3,5-Dichloro-pyridin-4-yl)-acetyl]-2,3-dimethoxy-phenoxy}-N-(2-methyl-benzyl)-acetamide]	< 1000
COc1ccc(C(=O)Cc2c(Cl)cncc2Cl)c(OCC(=O)NCc2cccc(F)c2)c1OC [Compound 238, 2-{6-[2-(3,5-Dichloro-pyridin-4-yl)-acetyl]-2,3-dimethoxy-phenoxy}-N-(3-fluoro-benzyl)-acetamide]	< 1000
COc1ccc(C(=O)Cc2c(Cl)cncc2Cl)c(OCC(=O)NCc2cccc(C)c2)c1OC [Compound 239, 2-{6-[2-(3,5-Dichloro-pyridin-4-yl)-acetyl]-2,3-dimethoxy-phenoxy}-N-(3-methyl-benzyl)-acetamide]	< 1000
COc1ccc(C(=O)Cc2c(Cl)cncc2Cl)c(OCC(=O)NCc2ccc(C)cc2)c1OC [Compound 240, 2-{6-[2-(3,5-Dichloro-pyridin-4-yl)-acetyl]-2,3-dimethoxy-phenoxy}-N-(4-methyl-benzyl)-acetamide]	< 1000
COc1ccc(C(=O)Cc2c(Cl)cncc2Cl)c(OCC(=O)NCCc2ccccc2)c1OC [Compound 241, 2-{6-[2-(3,5-Dichloro-pyridin-4-yl)-acetyl]-2,3-dimethoxy-phenoxy}-N-phenethyl-acetamide]	< 1000
COc1ccc(C(=O)Cc2c(Cl)cncc2Cl)c(OCC(=O)NCCCc2ccccc2)c1OC [Compound 243, 2-{6-[2-(3,5-Dichloro-pyridin-4-yl)-acetyl]-2,3-dimethoxy-phenoxy}-N-(3-phenyl-propyl)-acetamide]	< 1000
COc1ccc(C(=O)Cc2c(Cl)cncc2Cl)c(OCC(=O)NCc2ccccc2Cl)c1OC [Compound 244, N-(2-Chloro-benzyl)-2-{6-[2-(3,5-dichloro-pyridin-4-yl)-acetyl]-2,3-dimethoxy-phenoxy}-acetamide]	< 1000
COc1ccc(C(=O)Cc2c(Cl)cncc2Cl)c(OCC(=O)NCc2cccc(Cl)c2)c1OC [Compound 246, N-(3-Chloro-benzyl)-2-{6-(2-(3,5-dichloro-pyridin-4-yl)-acetyl)-2,3-dimethoxy-phenoxy}-acetamide]	< 1000
COc1ccc(C(=O)Cc2c(Cl)cncc2Cl)c(OCC(=O)NCc2ccc(Cl)cc2)c1OC [Compound 248, N-(4-Chloro-benzyl)-2-{6-[2-(3,5-dichloro-pyridin-4-yl)-acetyl]-2,3-dimethoxy-phenoxy}-acetamide]	< 1000
COc1ccc(C(=O)Cc2c(Cl)cncc2Cl)c(OCC(=O)NCCc2cccnc2)c1OC [Compound 249, 2-{6-[2-(3,5-Dichloro-pyridin-4-yl)-acetyl]-2,3-dimethoxy-phenoxy}-14-(2-pyridin-3-yl-ethyl)-acetamide]	< 1000
COc1ccc(C(=O)Cc2c(Cl)cncc2Cl)c(OCC(=O)NCCNC(C)=O)c1OC [Compound 251, N-(2-Acetylamino-ethyl)-2-{6-[2-(3,5-dichloro-pyridin-4-yl)-acetyl]-2,3-dimethoxy-phenoxy}-acetamide]	< 1000
